≈ marks a conversion by molar mass, not a printed value. Bridge positions count the residues as written; N and C are the ends. Square brackets hold non-standard residues; d marks the D form. Peptide text beside a SMILES is read from it. * marks the point of attachment. Dab(CH2SO3H) = N[C@@H](CCNCS(=O)(=O)O)C(=O)O; Heptanoyl(6-Me) = CC(C)CCCCC(=O)*; Nonanoyl = CCCCCCCCC(=O)*; X1 = CC[C@H](C)CCCCC(=O)*; dDab = NCC[C@@H](N)C(=O)O; Heptanoyl = CCCCCCC(=O)*; Octanoyl = CCCCCCCC(=O)*; Orn = NCCC[C@H](N)C(=O)O; Dab = NCC[C@H](N)C(=O)O; Dap = NC[C@H](N)C(=O)O
Columns and labels:
Assay type in all cases: cell-based
[1] = tested on: Acinetobacter baumannii NCTC 13304 (OXA-27); conditions: NCTC 13304
Summary of the method: (§1)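 The MIC value comes from CLSI broth microdilution after 16-20 h at 35-37°C. Cyclic lipopeptides in Mueller-Hinton broth spanned 64 to 0.03 mg/L final, with each well carrying (2-4) × 10^5 CFU/mL.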

[2] = tested on: Escherichia coli ATCC BAA-2340 (KPC); conditions: ATCC BAA-2340
Summary of the method: as §1

[3] = tested on: Pseudomonas aeruginosa ATCC 27853; conditions: ATCC 27853
Summary of the method: as §1

[4] = tested on: Pseudomonas aeruginosa PAE19-3; conditions: PAE19-3
Summary of the method: as §1

[5] = tested on: Klebsiella pneumoniae ATCC BAA-1705 (KPC); conditions: ATCC BAA-1705
Summary of the method: as §1

[6] = tested on: Klebsiella pneumoniae KPN+19-15; conditions: KPN+19-15
Summary of the method: as §1

[7] = tested on: Acinetobacter baumannii ABA19-1; conditions: ABA19-1
Summary of the method: as §1

[8] = tested on: Escherichia coli ATCC BAA-2523; conditions: ATCC BAA-2523
Summary of the method: as §1

[9] = Nephrotoxicity assay: in vitro cytotoxicity of HK-2 cells by CCK-8 assay; conditions: human, HK-2 cells (human renal), 72 h incubation with drug-containing medium
Summary of the method: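 Compounds in sterile water, diluted to final 500, 250, 200, 100, 50, 25 and 12.5 µg/mL, were applied for 72 h to human HK-2 kidney cells. Absorbance at 450 nm after 3 h CCK-8 gave viability against untreated wells, and IC50 came from logarithmic regression; three replicates.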

Compound | MIC [1] | MIC [2] | MIC [3] | MIC [4] | MIC [5] | MIC [6] | MIC [7] | MIC [8] | IC50 at 72 h [9]
CC[C@H](C)CCCCC(=O)N[C@@H](CCN)C(=O)N[C@H](C(=O)N[C@H](CO)C(=O)N[C@H]1CCNC(=O)[C@H]([C@@H](C)O)NC(=O)[C@H](CN)NC(=O)[C@H](CCN)NC(=O)[C@H]([C@@H](C)O)NC(=O)[C@@H](Cc2ccccc2)NC(=O)[C@H](CCN)NC1=O)[C@@H](C)O [Compound 81, (S)-6-methyloctanoyl-Dab-Thr-D-Ser-ring(4-10)[Dab-Dab-D-Phe-Thr-Dab-Dap-Thr]] (X1-[Dab]T[dS][Dab][Dab][dF]T[Dab][Dap]T; lactam 4-C) | ≤0.03 µg/mL | 0.03 µg/mL (≈ 0.0258 µM) | >64 µg/mL | 64 µg/mL (≈ 55 µM) | 0.25 µg/mL (≈ 0.215 µM) | 0.5 µg/mL (≈ 0.429 µM) | 0.06 µg/mL (≈ 0.0515 µM) | 0.03 µg/mL (≈ 0.0258 µM) | > 500 µg/mL
CCCCCCCC(=O)N[C@@H](CCN)C(=O)N[C@H](C(=O)N[C@H](CO)C(=O)N[C@H]1CCNC(=O)[C@H]([C@@H](C)O)NC(=O)[C@H](CCN)NC(=O)[C@H](CCN)NC(=O)[C@H]([C@@H](C)O)NC(=O)[C@@H](Cc2ccccc2)NC(=O)[C@H](CCCN)NC1=O)[C@@H](C)O [Compound 68, Octanoyl-Dab-Thr-D-Ser-ring(4-10)[Dab-Orn-D-Phe-Thr-Dab-Dab-Thr]] (Octanoyl-[Dab]T[dS][Dab][Orn][dF]T[Dab][Dab]T; lactam 4-C) | 0.25 µg/mL (≈ 0.212 µM) | 0.25 µg/mL (≈ 0.212 µM) | 64 µg/mL (≈ 54.3 µM) | 4 µg/mL (≈ 3.39 µM) | 0.25 µg/mL (≈ 0.212 µM) | 0.5 µg/mL (≈ 0.424 µM) | 0.25 µg/mL (≈ 0.212 µM) | 0.25 µg/mL (≈ 0.212 µM) | > 500 µg/mL
CC(C)CCCCC(=O)N[C@@H](CCN)C(=O)N[C@H](C(=O)N[C@@H](CN)C(=O)N[C@H]1CCNC(=O)[C@H]([C@@H](C)O)NC(=O)[C@H](CCN)NC(=O)[C@H](CCN)NC(=O)[C@H]([C@@H](C)O)NC(=O)[C@@H](Cc2ccccc2)NC(=O)[C@H](CCNCS(=O)(=O)O)NC1=O)[C@@H](C)O [Compound 118, 6-methylheptanoyl-Dab-Thr-Dap-ring(4-10)[Dab-Dab(CH2SO3H)-D-Phe-Thr-Dab-Dab-Thr]] ({Heptanoyl(6-Me)}-[Dab]T[Dap][Dab][Dab(CH2SO3H)][dF]T[Dab][Dab]T; lactam 4-C) | 0.06 µg/mL (≈ 0.0477 µM) | 0.06 µg/mL (≈ 0.0477 µM) | 0.25 µg/mL (≈ 0.199 µM) | 0.5 µg/mL (≈ 0.398 µM) | 0.125 µg/mL (≈ 0.0994 µM) | 0.125 µg/mL (≈ 0.0994 µM) | 0.25 µg/mL (≈ 0.199 µM) | 0.06 µg/mL (≈ 0.0477 µM) | > 500 µg/mL
CCCCCCC(=O)N[C@@H](CN)C(=O)N[C@H](C(=O)N[C@H](CCN)C(=O)N[C@H]1CCNC(=O)[C@H]([C@@H](C)O)NC(=O)[C@H](CCN)NC(=O)[C@H](CCN)NC(=O)[C@H](CC(C)C)NC(=O)[C@@H](CC(C)C)NC(=O)[C@H](CCN)NC1=O)[C@@H](C)O [Compound 99, Heptanoyl-Dap-Thr-D-Dab-ring(4-10)[Dab-Dab-D-Leu-Leu-Dab-Dab-Thr]] (Heptanoyl-[Dap]T[dDab][Dab][Dab][dL]L[Dab][Dab]T; lactam 4-C) | 0.03 µg/mL (≈ 0.0266 µM) | 0.06 µg/mL (≈ 0.0532 µM) | 1 µg/mL (≈ 0.887 µM) | 1 µg/mL (≈ 0.887 µM) | 0.03 µg/mL (≈ 0.0266 µM) | 0.03 µg/mL (≈ 0.0266 µM) | 0.03 µg/mL (≈ 0.0266 µM) | 0.06 µg/mL (≈ 0.0532 µM) | 317 ± 18.1 µg/mL (≈ 281 µM)
CC(C)CCCCC(=O)N[C@@H](CCN)C(=O)N[C@H](C(=O)N[C@H](CCN)C(=O)N[C@H]1CCNC(=O)[C@H]([C@@H](C)O)NC(=O)[C@H](CCN)NC(=O)[C@H](CCN)NC(=O)[C@H]([C@@H](C)O)NC(=O)[C@@H](Cc2ccccc2)NC(=O)[C@H](CCN)NC1=O)[C@@H](C)O [Compound 12, 6-methylheptanoyl-Dab-Thr-D-Dab-ring(4-10)[Dab-Dab-D-Phe-Thr-Dab-Dab-Thr]] ({Heptanoyl(6-Me)}-[Dab]T[dDab][Dab][Dab][dF]T[Dab][Dab]T; lactam 4-C) | ≤0.03 µg/mL | ≤0.03 µg/mL | 0.5 µg/mL (≈ 0.425 µM) | 0.5 µg/mL (≈ 0.425 µM) | 0.125 µg/mL (≈ 0.106 µM) | ≤0.03 µg/mL | 0.06 µg/mL (≈ 0.051 µM) | ≤0.03 µg/mL | > 500 µg/mL
CCCCCCCCC(=O)N[C@@H](CCN)C(=O)N[C@H](C(=O)N[C@H](CO)C(=O)N[C@H]1CCNC(=O)[C@H]([C@@H](C)O)NC(=O)[C@H](CCN)NC(=O)[C@H](CCCN)NC(=O)[C@H]([C@@H](C)O)NC(=O)[C@@H](Cc2ccccc2)NC(=O)[C@H](CCN)NC1=O)[C@@H](C)O [Compound 80, Nonanoyl-Dab-Thr-D-Ser-ring(4-10)[Dab-Dab-D-Phe-Thr-Orn-Dab-Thr]] (Nonanoyl-[Dab]T[dS][Dab][Dab][dF]T[Orn][Dab]T; lactam 4-C) | 0.03 µg/mL (≈ 0.0252 µM) | 0.06 µg/mL (≈ 0.0503 µM) | >64 µg/mL | 64 µg/mL (≈ 53.7 µM) | 0.25 µg/mL (≈ 0.21 µM) | 0.5 µg/mL (≈ 0.419 µM) | 0.06 µg/mL (≈ 0.0503 µM) | 0.06 µg/mL (≈ 0.0503 µM) | 288 ± 19.5 µg/mL (≈ 241 µM)

— patent publication EP4725957A1, “GROUP OF CYCLIC ALKALINE LIPOPEPTIDE COMPOUNDS, AND PREPARATION METHOD THEREFOR AND USE THEREOF” (Institute of Medicinal Biotechnology, Chinese Academy of …, priority 2023, dated 2024)
